# Assay results published in PMC7356696, “Synthesis, Antimicrobial Activity and Molecular Docking of Novel Thiourea Derivatives Tagged with Thiadiazole, Imidazole and Triazine Moieties as Potential DNA Gyrase and Topoisomerase IV Inhibitors” (Molecules, 2020).
# Read-outs that look alike come from different tables or passages of the source.
# What was measured:
# [1] = system: Bacillus subtilis ATCC 6633; experiment: Agar well diffusion, inhibition zone; format: cell-based; set-up: dose or concentration left out as unconfirmed; conditions: ATCC6633, B. subtilis ATCC 6633, NA = No Activity, read-out: Mean Diameter of Inhibition Zone (Mean ± SEM)
# From the text: (§1) The antimicrobial activity of all synthesized compounds 2–13 was screened against a panel of two Gram-positive bacteria (Staphylococcus aureus ATCC 29213 and Bacillus subtilis ATCC 6633), two Gram-negative bacteria (Escherichia coli ATCC 25922, Pseudomonas aeruginosa ATCC 27853) and two fungi (Candida albicans ATCC 10231 and Aspergillus flavus ATCC 46283) using the agar well diffusion method. Ciprofloxacin and clotrimazole were used as antibacterial and antifungal standards, respectively. The results of this study were recorded as the average diameter of the inhibition zones (IZ) in Table 1. […] Additionally, the promising activity against S. aureus was observed from compounds 9, 12 and 13, however against B. subtilis from compounds 12 and 13.
# (§2) The antimicrobial assay was performed in vitro for the target compounds 2–13 against Staphylococcus aureus ATCC 29213, Bacillus subtilis ATCC 6633 as Gram-positive bacteria, Escherichia coli ATCC 25922, Pseudomonas aeruginosa ATCC 27853 as Gram-negative bacteria and Candida albicans ATCC 10231, Aspergillus flavus ATCC 46283 as fungi. At the first, 100 μL of the test bacteria/fungi were grown in 10 mL of fresh media until they reached a count of approximately 10^8 cells/ml for bacteria or 10^5 cells/mL for fungi. […] The plates were incubated for 24 h at 37 °C (for bacteria and yeast) and for 72 h at 27 °C (for filamentous fungi), each test was repeated three times. After incubation, the microorganism’s growth was observed. Ciprofloxacin and clotrimazole were used as standard antibacterial and antifungal drugs, respectively. The resulting inhibition zone diameters were measured in millimeters using the diffusion technique. […] The different concentrations (triplicate) of each compound were tested and compared with standard drugs.
# [2] = system: Staphylococcus aureus ATCC 29213; experiment: Agar well diffusion, inhibition zone; format: cell-based; set-up: dose or concentration left out as unconfirmed; conditions: ATCC29213, S. aureus ATCC 29213, NA = No Activity, read-out: Mean Diameter of Inhibition Zone (Mean ± SEM)
# From the text: as §1, §2
# [3] = system: Aspergillus flavus ATCC 46283; experiment: Agar well diffusion, inhibition zone; format: cell-based; set-up: dose or concentration left out as unconfirmed; conditions: ATCC46283, A. flavus ATCC 46283, NA = No Activity, read-out: Mean Diameter of Inhibition Zone (Mean ± SEM)
# From the text: as §1
# (§3) The antimicrobial assay was performed in vitro for the target compounds 2–13 against Staphylococcus aureus ATCC 29213, Bacillus subtilis ATCC 6633 as Gram-positive bacteria, Escherichia coli ATCC 25922, Pseudomonas aeruginosa ATCC 27853 as Gram-negative bacteria and Candida albicans ATCC 10231, Aspergillus flavus ATCC 46283 as fungi. At the first, 100 μL of the test bacteria/fungi were grown in 10 mL of fresh media until they reached a count of approximately 10^8 cells/ml for bacteria or 10^5 cells/mL for fungi. […] of each sample (at 0.5 mg/mL) was added to each well (10 mm diameter holes cut in the agar gel). The plates were incubated for 24 h at 37 °C (for bacteria and yeast) and for 72 h at 27 °C (for filamentous fungi), each test was repeated three times. After incubation, the microorganism’s growth was observed. Ciprofloxacin and clotrimazole were used as standard antibacterial and antifungal drugs, respectively. The resulting inhibition zone diameters were measured in millimeters using the diffusion technique. […] The different concentrations (triplicate) of each compound were tested and compared with standard drugs.
# [4] = system: Candida albicans ATCC 10231; experiment: Agar well diffusion, inhibition zone; format: cell-based; set-up: dose or concentration left out as unconfirmed; conditions: ATCC10231, C. albicans ATCC 10231, NA = No Activity, read-out: Mean Diameter of Inhibition Zone (Mean ± SEM)
# From the text: as §1, §3
# [5] = system: Escherichia coli ATCC 25922; experiment: Agar well diffusion, inhibition zone; format: cell-based; set-up: dose or concentration left out as unconfirmed; conditions: ATCC25922, E. coli ATCC 25922, NA = No Activity, read-out: Mean Diameter of Inhibition Zone (Mean ± SEM)
# From the text: as §1, §3
# [6] = system: Pseudomonas aeruginosa ATCC 27853; experiment: Agar well diffusion, inhibition zone; format: cell-based; set-up: dose or concentration left out as unconfirmed; conditions: ATCC27853, P. aeruginosa ATCC 27853, NA = No Activity, read-out: Mean Diameter of Inhibition Zone (Mean ± SEM)
# From the text: as §1, §3
# [7] = system: Aspergillus flavus ATCC 46283; experiment: MIC, modified agar well diffusion method; format: cell-based; conditions: ATCC46283, A. flavus ATCC 46283, read-out: MIC (Mean ± SEM)
# From the text: as §1, §3
# [8] = system: Bacillus subtilis ATCC 6633; experiment: MIC, modified agar well diffusion method; format: cell-based; conditions: ATCC6633, B. subtilis ATCC 6633, read-out: MIC (Mean ± SEM)
# From the text: as §1, §3
# [9] = system: Candida albicans ATCC 10231; experiment: MIC, modified agar well diffusion method; format: cell-based; conditions: ATCC10231, C. albicans ATCC 10231, read-out: MIC (Mean ± SEM)
# From the text: as §1, §3
# [10] = system: Escherichia coli ATCC 25922; experiment: MIC, modified agar well diffusion method; format: cell-based; conditions: ATCC25922, E. coli ATCC 25922, read-out: MIC (Mean ± SEM)
# From the text: as §1, §3
# [11] = system: Pseudomonas aeruginosa ATCC 27853; experiment: MIC, modified agar well diffusion method; format: cell-based; conditions: ATCC27853, P. aeruginosa ATCC 27853, read-out: MIC (Mean ± SEM)
# From the text: as §1, §3
# [12] = system: Staphylococcus aureus ATCC 29213; experiment: MIC, modified agar well diffusion method; format: cell-based; conditions: ATCC29213, S. aureus ATCC 29213, read-out: MIC (Mean ± SEM)
# From the text: as §1, §3
# [13] = MTT assay for cytotoxic activity; format: cell-based; conditions: African green monkey, Vero cells (normal kidney epithelial cell line), read-out: IC50 (Mean ± SEM), cytotoxic activity
# From the text: (§4) The results are expressed as IC50 values (µM) and are depicted in Table 3.
# [14] = system: human breast cancer (MCF-7) cells; experiment: MTT assay for cytotoxic activity; format: cell-based; conditions: read-out: IC50 (Mean ± SEM), cytotoxic activity
# From the text: as §4
# [15] = system: Staphylococcus aureus DNA gyrase; set-up: method as in PMID 25792505; conditions: cited from earlier work
# [16] = biological target: T1, dihydrofolate reductase (DHFR) (Homo sapiens, UniProt P00374); set-up: method as in PMID 23792351; conditions: cited from earlier work
# T1 construct: purchased Bio Vision
# T1 sequence (P00374 1-187): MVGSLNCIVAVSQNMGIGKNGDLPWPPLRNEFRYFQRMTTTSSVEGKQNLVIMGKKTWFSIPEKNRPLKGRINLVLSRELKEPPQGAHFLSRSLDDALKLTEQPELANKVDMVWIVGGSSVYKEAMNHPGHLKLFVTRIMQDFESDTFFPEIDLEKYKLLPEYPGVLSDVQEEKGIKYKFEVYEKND
# [17] = Homo sapiens, MCF7, MCF-7 cells
SMILES,zone of inhibition [1] [mm],zone of inhibition [2] [mm],zone of inhibition [3] [mm],zone of inhibition [4] [mm],zone of inhibition [5] [mm],zone of inhibition [6] [mm],MIC [7] [µg/mL],MIC [8] [µg/mL],MIC [9] [µg/mL],MIC [10] [µg/mL],MIC [11] [µg/mL],MIC [12] [µg/mL],IC50 [13] [µM],"IC50 [14, 17] [µM]",IC50 ([14]; MCF-7 cells) [µM],IC50 [15] [µM],fold more active than the positive control methotrexate as DHFR inhibitor [16] [fold]
"N=c1oc2ccccc2cc1-c1nnc(NC(=O)Cc2ccccc2)s1 [Compound 11, N-(5-(2-Imino-2H-chromen-3-yl)-1,3,4-thiadiazol-2-yl)-2-phenylacetamide]",6 ± 0.53,12 ± 0.3,–,–,–,–,–,–,–,–,–,–,–,–,–,–,–
"O=C(Cc1ccccc1)NC(=S)NNC(=O)C(=Cc1cccs1)NC(=O)c1ccccc1 [Compound 7b, 1-(2-Benzamido-3-(thiophen-2-yl)acryloyl)-4-phenylacetylthiosemicarbazide]",35 ± 0.26,33 ± 0.01,25 ± 0.15,16 ± 0.12,18 ± 0.41,26 ± 0.21,5.7 ± 0.01,1.46 ± 0.1,76 ± 0.31,4.68 ± 0.13,2.72 ± 0.15,3.9 ± 0.26,133.3 ± 0.4,11.6 ± 0.59,11.6 ± 0.59,–,–
"CCOC(=O)CNC(=S)NC(=O)Cc1ccccc1 [Compound 2, Ethyl ((2-phenylacetyl)carbonothionyl)glycinate]",–,9 ± 0.61,–,–,–,–,–,–,–,–,–,–,–,–,–,–,–
"O=c1cc2nc(Cc3ccccc3)[nH]c(=S)n2[nH]1 [Compound 9, 2-Benzyl-3,4-dihydro-4-thioxopyrazolo[1,5-a][1,3,5]triazin-7(6H)-one]",18 ± 0.25,21 ± 0.3,15 ± 0.33,9 ± 0.2,–,9 ± 0.25,20.4 ± 0.3,8.6 ± 0.25,94 ± 0.1,–,17.6 ± 0.2,9.92 ± 0.3,62.45 ± 0.2,26.4 ± 0.46,–,–,–
"O=C(Cc1ccccc1)NC(=S)N1NC(=O)C(=Cc2ccccc2)N=C1c1ccccc1 [Compound 12, 5-Benzylidene-5,6-dihydro-N-(1-hydroxy-2-phenylethylidene)-6-oxo-3-phenyl-1,2,4-triazine-2(1H)-carbothioamide]",23 ± 0.01,22 ± 0.05,18 ± 0.03,14 ± 0.21,5 ± 0.58,17 ± 0.2,15.6 ± 0.01,2.3 ± 0.05,85 ± 0.15,27 ± 0.02,12.5 ± 0.2,5.22 ± 0.03,79.19 ± 0.28,35.9 ± 0.85,–,–,–
"N#CCc1nnc(NC(=O)Cc2ccccc2)s1 [Compound 10, N-(5-(Cyanomethyl)-1,3,4-thiadiazol-2-yl)-2-phenylacetamide]",12 ± 0.21,15 ± 0.42,6 ± 0.41,–,–,6 ± 0.02,–,–,–,–,–,–,–,–,–,–,–
"O=C(Cc1ccccc1)Nc1nnc(C(=Cc2cccs2)NC(=O)c2ccccc2)s1 [Compound 13, N-(1-(5-(2-Phenylacetamido)-1,3,4-thiadiazol-2-yl)-2-(thiophen-2-yl)vinyl)benzamide]",24 ± 1.11,21 ± 0.1,18 ± 0.22,12 ± 0.46,6 ± 0.15,15 ± 0.11,14.6 ± 0.2,2.72 ± 1.11,83 ± 0.22,33,13.41 ± 0.1,5.6 ± 0.15,84.11 ± 0.32,37.7 ± 0.93,–,–,–
"O=C(O)c1cn(C2CC2)c2cc(N3CCNCC3)c(F)cc2c1=O [Ciprofloxacin, reference compound]",23 ± 0.2,24 ± 0.6,–,–,26 ± 0.25,23 ± 0.9,–,2.9 ± 0.02,–,2.9 ± 0.25,2.9 ± 0.04,5.85 ± 0.13,–,–,–,–,–
Cc1occc1C(=O)NNC(=S)NC(=O)c1ccccc1 [I],–,–,–,–,–,–,–,–,–,–,–,–,–,–,–,14.6,–
COc1ccc(NC(=S)Nc2nc(-c3nnc(S)n3-c3ccc(OC)cc3OC)cs2)c(OC)c1 [V],–,–,–,–,–,–,–,–,–,–,–,–,–,–,–,–,2.7
"O=C(Cc1ccccc1)NC(=S)NNC(=O)C(=Cc1ccccc1)NC(=O)c1ccccc1 [Compound 7a, 1-(2-Benzamido-3-phenylacryloyl)-4-phenylacetylthiosemicarbazide]",33 ± 0.5,30 ± 0.22,24 ± 0.02,15 ± 0.3,18 ± 0.22,27 ± 0.03,5.21 ± 0.11,1.39 ± 0.5,64 ± 0.41,4.22 ± 0.12,2.81 ± 0.01,4.15 ± 0.22,149.1 ± 0.21,10.2 ± 0.65,–,–,–
"Clc1ccccc1C(c1ccccc1)(c1ccccc1)n1ccnc1 [Clotrimazole, reference compound]",–,–,25 ± 0.4,27 ± 0.21,–,–,4.25 ± 0.05,–,12.5 ± 0.15,–,–,–,–,–,–,–,–
"O=C(Cc1ccccc1)NC(=S)NN1C(=O)C(=Cc2ccccc2)N=C1c1ccccc1 [Compound 6, 1-(4-Benzylidene-4,5-dihydro-5-oxo-2-phenylimidazol-1-yl)-3-(2-phenylacetyl)thiourea]",30 ± 0.26,27 ± 0.2,9 ± 0.03,6 ± 0.22,12 ± 0.1,21 ± 0.26,26.2 ± 0.03,2.29 ± 0.05,91 ± 0.02,7.8 ± 0.1,2.48 ± 0.11,5.12 ± 0.05,122.8 ± 0.4,23.7 ± 0.96,–,–,–
